From ChEMBL document CHEMBL3286345, “Synthesis and biological activity of new arenediyne-linked isoxazolidines” (2014)
Active and inactive are the calls of the source. No cut-off for these calls is given here.

Tests used:
[1] = tested on: HT-29; test: Antiproliferative activity against human HT-29 cells at 50 to 100 uM after 48 to 72 hrs by MTT assay; type: functional, cell-based
[2] = tested on: HepG2; test: Antiproliferative activity against human HepG2 cells at 100 uM after 72 hrs by MTT assay; type: functional, cell-based
[3] = tested on: SH-SY5Y; test: Antiproliferative activity against human SH-SY5Y cells at 100 uM after 72 hrs by MTT assay; type: functional, cell-based
[4] = tested on: HT-29; test: Antiproliferative activity against human HT-29 cells at 1 to 100 uM by MTT assay; type: functional, cell-based; conditions: TDE = time-dependent effect
[5] = tested on: HepG2; test: Antiproliferative activity against human HepG2 cells at 1 to 100 uM by MTT assay; type: functional, cell-based; conditions: TDE = time-dependent effect
[6] = tested on: SH-SY5Y; test: Antiproliferative activity against human SH-SY5Y cells at 1 to 100 uM by MTT assay; type: functional, cell-based; conditions: TDE = time-dependent effect
[7] = tested on: HT-29; test: Antiproliferative activity against human HT-29 cells after 24 to 72 hrs by MTT assay; type: functional, cell-based
[8] = tested on: HepG2; test: Antiproliferative activity against human HepG2 cells after 24 to 72 hrs by MTT assay; type: functional, cell-based
[9] = tested on: SH-SY5Y; test: Antiproliferative activity against human SH-SY5Y cells after 24 to 72 hrs by MTT assay; type: functional, cell-based
[10] = tested on: HT-29; test: Cytotoxicity against human HT-29 cells at 50 to 100 uM after 24 to 72 hrs by LDH release assay; type: functional, cell-based
[11] = tested on: HepG2; test: Cytotoxicity against human HepG2 cells at 50 to 100 uM after 24 to 72 hrs by LDH release assay; type: functional, cell-based
[12] = tested on: SH-SY5Y; test: Cytotoxicity against human SH-SY5Y cells at 50 to 100 uM after 24 to 72 hrs by LDH release assay; type: functional, cell-based
[13] = tested on: HT-29; test: Cytotoxicity against human HT-29 cells assessed as cell death at 1 to 100 uM after 24 to 72 hrs by trypan blue dye exclusion assay; type: functional, cell-based
[14] = tested on: HepG2; test: Cytotoxicity against human HepG2 cells assessed as cell death at 1 to 100 uM after 24 to 72 hrs by trypan blue dye exclusion assay; type: functional, cell-based
[15] = tested on: SH-SY5Y; test: Cytotoxicity against human SH-SY5Y cells assessed as cell death at 1 to 100 uM after 24 to 72 hrs by trypan blue dye exclusion assay; type: functional, cell-based
[16] = tested on: HepG2; test: Antiproliferative activity against human HepG2 cells at 1 to 100 uM after 24 to 72 hrs by cell counting assay; type: functional, cell-based
[17] = tested on: HT-29; test: Antiproliferative activity against human HT-29 cells at 1 to 100 uM after 24 to 72 hrs by cell counting assay; type: functional, cell-based
[18] = tested on: SH-SY5Y; test: Antiproliferative activity against human SH-SY5Y cells at 1 to 100 uM after 24 to 72 hrs by cell counting assay; type: functional, cell-based
[19] = tested on: HT-29; test: Antiproliferative activity against human HT-29 cells at 1 to 100 uM after 24 to 72 hrs by MTT assay; type: functional, cell-based
[20] = tested on: HepG2; test: Antiproliferative activity against human HepG2 cells at 1 to 100 uM after 24 to 72 hrs by MTT assay; type: functional, cell-based
[21] = tested on: SH-SY5Y; test: Antiproliferative activity against human SH-SY5Y cells at 1 to 100 uM after 24 to 72 hrs by MTT assay; type: functional, cell-based
[22] = tested on: HT-29; test: Cytotoxicity against human HT-29 cells at 1 to 100 uM after 24 to 72 hrs by LDH release assay; type: functional, cell-based
[23] = tested on: HepG2; test: Cytotoxicity against human HepG2 cells at 1 to 100 uM after 24 to 72 hrs by LDH release assay; type: functional, cell-based
[24] = tested on: SH-SY5Y; test: Cytotoxicity against human SH-SY5Y cells at 1 to 100 uM after 24 to 72 hrs by LDH release assay; type: functional, cell-based
[25] = tested on: HT-29; test: Antiproliferative activity against human HT-29 cells at 100 uM after 72 hrs by MTT assay; type: functional
[26] = tested on: HT-29; test: Antiproliferative activity against human HT-29 cells at 100 uM after 48 hrs by MTT assay; type: functional, cell-based
[27] = tested on: HT-29; test: Antiproliferative activity against human HT-29 cells at 50 uM after 48 to 72 hrs by MTT assay; type: functional, cell-based

| Compound | Activity [4] | Activity [5] | Activity [6] | Activity [7] | Activity [8] | Activity [9] | Activity [10] | Activity [11] | Activity [12] | Activity [13] | Activity [14] | Activity [15] | Activity [16] | Activity [17] | Activity [18] | Activity [19] | Activity [20] | Activity [21] | Activity [22] | Activity [23] | further results |
| --- | --- | --- | --- | --- | --- | --- | --- | --- | --- | --- | --- | --- | --- | --- | --- | --- | --- | --- | --- | --- | --- |
| CN1O[C@H](OCC#Cc2ccccc2C#CCO)C[C@@H]1CO (racemic) | tde | tde | tde | Dose-dependent effect | Dose-dependent effect | Dose-dependent effect | Active | Active | Active | Active | Active | Active | Active | Active | Active | – | – | – | – | – | Activity [1]: Active; Activity [2]: Active; Activity [3]: Active |
| CN1O[C@H](OCC#Cc2ccccc2C#CCO)C[C@@H]1CO[Si](c1ccccc1)(c1ccccc1)C(C)(C)C (racemic) | – | – | – | – | – | – | – | – | – | – | – | – | inactive | inactive | inactive | inactive | inactive | inactive | inactive | inactive | Activity [24]: inactive |
| CN1O[C@@H]2COCC#Cc3ccccc3C#CCOC[C@@H]2[C@@H]1CO[Si](c1ccccc1)(c1ccccc1)C(C)(C)C (racemic) | tde | tde | tde | Dose-dependent effect | Dose-dependent effect | Dose-dependent effect | Active | Active | Active | Active | Active | Active | Active | Active | Active | – | – | – | – | – | Activity [25]: 63%; Activity [26]: Active; Activity [27]: Active |
| CN1O[C@@H](OCC#Cc2ccccc2C#CCO)C[C@@H]1CO[Si](c1ccccc1)(c1ccccc1)C(C)(C)C (racemic) | – | – | – | – | – | – | – | – | – | – | – | – | inactive | inactive | inactive | inactive | inactive | inactive | inactive | inactive | Activity [24]: inactive |
